Assay results from patent US20240301319A1, “PERFUMING COMPOSITIONS” (FIRMNICH SA, priority 2017, published 2024).

How the values were obtained:
[1] = Odor threshold and odor value of perfuming compounds (Tables 4 to 10)
[2] = Volatility of perfuming compounds (Tables 4 to 10), with top/middle/bottom note type; type: physicochemical
In short: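 Note type follows from air volatility (μg/l): bottom 49–0.1, middle 99–50, top 70,000–100. Compounds are listed within watery, green, fruity, citrus, sweet, gourmand and woody families.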

[3] = Table 9, perfuming compounds having a gourmand note, note type by volatility
[4] = Table 6, perfuming compounds having a fruity note
[5] = perfuming compounds having a green note
[6] = Table 6, perfuming compounds having a fruity note, note type by volatility
[7] = note type (Top/Middle/Bottom) by volatility, perfuming compounds having a green note
[8] = Table 7, citrus note, equals volatility divided by odor threshold
[9] = Table 7, citrus note, top, middle or bottom note
[10] = Table 8, perfuming compounds having a sweet note
[11] = Table 8, perfuming compounds having a sweet note, note type by volatility
[12] = Table 4, watery note, equals volatility divided by odor threshold
[13] = Table 4, watery note, top, middle or bottom note
[14] = Table 10, perfuming compounds having a woody note, note type by volatility

CC(=O)OCCC1CCCCC1 [2-CYCLOHEXYLETHYL ACETATE]
Odor Threshold ([1]; Table 9, gourmand note): 4.49E−02 μg/l air
Volatility ([2]; Table 9, gourmand note): 489.45 μg/l air
Type [2, 3]: Top

CCCCCC/C(C=O)=C\c1ccccc1 [(2E)-2-benzylideneoctanal]
Odor Threshold [1, 4]: 1.91E−03 μg/l air
Odor Value [1, 4]: 6.01E+02
Odor Threshold (μg/l air) [1, 5]: 1.91E−03 μg/l air
Volatility [2, 4]: 1.15 μg/l air
Type [2, 6]: Bottom
Type [2, 7]: Bottom
Volatility (μg/l air) [2, 5]: 1.15 μg/l air

O=C1CCC2(CCCCC2)O1 [1-oxaspiro[4.5]decan-2-one]
Odor Threshold ([1]; Table 9, gourmand note): 2.90E−04 μg/l air
Volatility ([2]; Table 9, gourmand note): 62.86 μg/l air
Type [2, 3]: Middle

CC(C)CCCC(C)CCO (racemic)
Odor Threshold (μg/l air) ([1]; Table 7, citrus note): 4.59E−02 μg/l air
Odor Value [1, 8]: 1.67E+03
Volatility (μg/l air) ([2]; Table 7, citrus note): 76.57 μg/l air
Type [2, 9]: Middle

CC1=CC[C@H](C(C)CC2CCCC2=O)CC1 (stereo partly shown)
Odor Threshold [1, 4]: 1.66E−04 μg/l air
Odor Value [1, 4]: 1.24E+04
Odor Threshold [1, 10]: 1.66E−04 μg/l air
Odor Value [1, 10]: 1.24E+04
Odor Threshold ([1]; Table 9, gourmand note): 1.66E−04 μg/l air
Volatility [2, 4]: 2.05 μg/l air
Type [2, 6]: Bottom
Volatility [2, 10]: 2.05 μg/l air
Type [2, 11]: Bottom
Volatility ([2]; Table 9, gourmand note): 2.05 μg/l air
Type [2, 3]: Bottom

CC/C=C\CCOC(=O)c1ccccc1O [(3Z)-3-hexen-1-yl salicylate]
Odor Threshold (μg/l air) [1, 5]: 3.23E−04 μg/l air
Type [2, 7]: Bottom
Volatility (μg/l air) [2, 5]: 4.34 μg/l air

CC(CC=O)CCCC(C)(C)O (racemic) [(+−)-7-hydroxy-3,7-dimethyloctanal]
Odor Threshold (μg/l air) ([1]; Table 4, watery note): 6.98E−03 μg/l air
Odor Value [1, 12]: 1.84E+03
Volatility (μg/l air) ([2]; Table 4, watery note): 12.81 μg/l air
Type [2, 13]: bottom (perfuming compounds having a volatility ranging from 49 to 0.1 μg/l in air are referred to as “bottom notes”)

C=C1CCCC(C)(C)C1C(=O)/C=C/C (racemic)
Odor Threshold [1, 10]: 3.73E−03 μg/l air
Odor Value [1, 10]: 4.10E+04
Odor Threshold ([1]; Table 9, gourmand note): 3.73E−03 μg/l air
Volatility [2, 4]: 152.99 μg/l air
Type [2, 6]: TOP (perfuming compounds having a volatility ranging from 70,000 to 100 μg/l in air are referred to as “top notes”)
Volatility [2, 10]: 152.99 μg/l air
Type [2, 11]: Top
Volatility ([2]; Table 9, gourmand note): 152.99 μg/l air
Type [2, 3]: Top

CCCC(O)CC[C@@H]1[C@@H](C)CCCC1(C)C (mixture of isomers)
Odor Threshold ([1]; Table 10, woody note): 5.92E−04 μg/l air
Type [2, 14]: Bottom
Volatility ([2]; Table 10, woody note): 2.34 μg/l air

COc1nccnc1CCCC(C)C
Odor Threshold (μg/l air) [1, 5]: 1.18E−07 μg/l air
Type [2, 7]: Top
Volatility (μg/l air) [2, 5]: 195.24 μg/l air

C[C@H]1[C@@H]2C[C@H](C[C@@]13C=CC(=O)CC3)C2(C)C
Odor Threshold [1, 4]: 6.32E−04 μg/l air
Odor Value [1, 4]: 6.54E+03
Odor Threshold ([1]; Table 10, woody note): 6.32E−04 μg/l air
Volatility [2, 4]: 4.14 μg/l air
Type [2, 6]: Bottom
Type [2, 14]: Bottom
Volatility ([2]; Table 10, woody note): 4.14 μg/l air

Cc1cnc(C)c(C)n1 [2,3,5-TRIMETHYLPYRAZINE]
Odor Threshold [1, 10]: 2.82E−04 μg/l air
Odor Value [1, 10]: 2.80E+07
Volatility [2, 10]: 7897.31 μg/l air
Type [2, 11]: Top

C[C@@H]1CC[C@@H](C(C)(C)S)C(=O)C1 [(1R,4R)-8-MERCAPTO-3-P-MENTHANONE]
Odor Threshold (μg/l air) [1, 5]: 3.43E−05 μg/l air
Volatility [2, 4]: 155.12 μg/l air
Type [2, 6]: TOP (perfuming compounds having a volatility ranging from 70,000 to 100 μg/l in air are referred to as “top notes”)
Type [2, 7]: Top
Volatility (μg/l air) [2, 5]: 155.12 μg/l air

CC1=C[C@H]2C[C@H](C(C)C)[C@@H]1[C@@H](C1OCCO1)C2 (racemic)
Odor Threshold (μg/l air) [1, 5]: 1.51E−01 μg/l air
Type [2, 7]: Bottom
Volatility (μg/l air) [2, 5]: 11.75 μg/l air

CC1=C(O)C(=O)CC1 [2-HYDROXY-3-METHYL-2-CYCLOPENTEN-1-ONE]
Odor Threshold [1, 10]: 3.82E−04 μg/l air
Odor Value [1, 10]: 1.04E+06
Volatility [2, 10]: 396.50 μg/l air
Type [2, 11]: Top

C=C/C=C/C=C\CCCCC
Odor Threshold (μg/l air) [1, 5]: 3.76E−05 μg/l air
Type [2, 7]: Top
Volatility (μg/l air) [2, 5]: 1247.28 μg/l air

C/C=C/C(=O)C1C(C)=CCCC1(C)C (racemic)
Odor Threshold [1, 4]: 1.04E−04 μg/l air
Odor Threshold [1, 10]: 1.04E−04 μg/l air
Odor Value [1, 10]: 1.06E+06
Odor Threshold ([1]; Table 10, woody note): 1.04E−04 μg/l air
Odor Threshold (μg/l air) [1, 5]: 1.04E−04 μg/l air
Type [2, 6]: TOP (perfuming compounds having a volatility ranging from 70,000 to 100 μg/l in air are referred to as “top notes”)
Volatility [2, 10]: 110.53 μg/l air
Type [2, 11]: Top
Type [2, 14]: Top
Volatility ([2]; Table 10, woody note): 110.53 μg/l air
Type [2, 7]: Top
Volatility (μg/l air) [2, 5]: 110.53 μg/l air

CCCCC[C@@H]1C(=O)CC[C@@H]1CC(=O)OC
Odor Threshold ([1]; Table 10, woody note): 2.82E−04 μg/l air
Type [2, 14]: Bottom
Volatility ([2]; Table 10, woody note): 1.71 μg/l air

CC(=O)CCC1=C(C)CCCC1(C)C
Odor Threshold [1, 10]: 8.51E−03 μg/l air
Odor Value [1, 10]: 7.48E+03
Odor Threshold ([1]; Table 10, woody note): 8.51E−03 μg/l air
Volatility [2, 10]: 63.61 μg/l air
Type [2, 11]: Middle
Type [2, 14]: Middle
Volatility ([2]; Table 10, woody note): 63.61 μg/l air

CCCCC/C=C/CCC=O [(E)-4-DECENAL]
Odor Threshold (μg/l air) ([1]; Table 7, citrus note): 7.59E−05 μg/l air
Odor Value [1, 8]: 9.11E+06
Volatility (μg/l air) ([2]; Table 7, citrus note): 691.34 μg/l air
Type [2, 9]: Top

CC1(CO)CC1CC1CC2CC2(C)C1(C)C (stereo not shown)
Odor Threshold ([1]; Table 10, woody note): 2.18E−06 μg/l air
Type [2, 14]: Bottom
Volatility ([2]; Table 10, woody note): 1.74 μg/l air

CCC=CCC=C/C=C/C(=O)OCC [ETHYL (2E)-2,4,7-DECATRIENOATE]
Odor Threshold [1, 4]: 1.49E−02 μg/l air
Odor Value [1, 4]: 1.70E+03
Odor Threshold (μg/l air) [1, 5]: 1.49E−02 μg/l air
Volatility [2, 4]: 25.34 μg/l air
Type [2, 6]: Bottom
Type [2, 7]: Bottom
Volatility (μg/l air) [2, 5]: 25.34 μg/l air

CO[C@]1(C)CC[C@@]23C[C@@H]1C(C)(C)[C@@H]2CC[C@H]3C (racemic) [(+−)-8-methoxycedrane]
Odor Threshold ([1]; Table 10, woody note): 2.09E−02 μg/l air
Type [2, 14]: Bottom
Volatility ([2]; Table 10, woody note): 42.22 μg/l air

CCCC(S)CCOC(C)=O (racemic) [(+−)-3-mercaptohexyl acetate]
Odor Threshold (μg/l air) [1, 5]: 2.72E−06 μg/l air
Volatility [2, 4]: 421.09 μg/l air
Type [2, 6]: TOP (perfuming compounds having a volatility ranging from 70,000 to 100 μg/l in air are referred to as “top notes”)
Type [2, 7]: Top
Volatility (μg/l air) [2, 5]: 421.09 μg/l air

CCCCCCOC(C)=O [HEXYL ACETATE]
Odor Threshold (μg/l air) [1, 5]: 1.32E−01 μg/l air
Volatility [2, 4]: 2316.04 μg/l air
Type [2, 6]: TOP (perfuming compounds having a volatility ranging from 70,000 to 100 μg/l in air are referred to as “top notes”)
Type [2, 7]: Top
Volatility (μg/l air) [2, 5]: 2316.04 μg/l air

CC(C)c1cccc(C(C)CC=O)c1 (racemic) [(+−)-3-(3-ISOPROPYL-1-PHENYL)BUTANAL]
Odor Threshold (μg/l air) ([1]; Table 4, watery note): 7.71E−04 μg/l air
Odor Value [1, 12]: 1.91E+04
Odor Threshold (μg/l air) [1, 5]: 7.71E−04 μg/l air
Volatility (μg/l air) ([2]; Table 4, watery note): 14.74 μg/l air
Type [2, 13]: bottom (perfuming compounds having a volatility ranging from 49 to 0.1 μg/l in air are referred to as “bottom notes”)
Type [2, 7]: Bottom
Volatility (μg/l air) [2, 5]: 14.74 μg/l air

C[C@@H]1CC[C@H]2[C@H](C)C(=O)O[C@@H]2C1
Odor Threshold ([1]; Table 9, gourmand note): 3.46E−05 μg/l air
Volatility ([2]; Table 9, gourmand note): 74.03 μg/l air
Type [2, 3]: Middle

CC(C)CCOCCc1ccccc1 [3-METHYLBUTYL 2-PHENYLETHYL ETHER]
Odor Threshold [1, 4]: 1.38E−02 μg/l air
Odor Value [1, 4]: 7.96E+03
Odor Threshold [1, 10]: 1.38E−02 μg/l air
Odor Value [1, 10]: 7.96E+03
Odor Threshold ([1]; Table 9, gourmand note): 1.38E−02 μg/l air
Volatility [2, 4]: 110.11 μg/l air
Type [2, 6]: TOP (perfuming compounds having a volatility ranging from 70,000 to 100 μg/l in air are referred to as “top notes”)
Volatility [2, 10]: 110.11 μg/l air
Type [2, 11]: Top
Volatility ([2]; Table 9, gourmand note): 110.11 μg/l air
Type [2, 3]: Top

CC1CC(C)(c2ccccc2)CO1 (racemic)
Odor Threshold (μg/l air) [1, 5]: 5.04E−04 μg/l air
Volatility [2, 4]: 263.73 μg/l air
Type [2, 6]: TOP (perfuming compounds having a volatility ranging from 70,000 to 100 μg/l in air are referred to as “top notes”)
Type [2, 7]: Top
Volatility (μg/l air) [2, 5]: 263.73 μg/l air

CC/C=C\CCCCC=O [(Z)-6-NONENAL]
Odor Threshold (μg/l air) [1, 5]: 2.91E−05 μg/l air
Type [2, 7]: Top
Volatility (μg/l air) [2, 5]: 2431.73 μg/l air

CC(=O)OC/C=C/c1ccccc1 [(E)-3-PHENYL-2-PROPENYL ACETATE]
Odor Threshold [1, 4]: 1.87E−04 μg/l air
Odor Value [1, 4]: 1.10E+05
Volatility [2, 4]: 20.47 μg/l air
Type [2, 6]: Bottom

CC/C=C\CC/C=C/CO [(2E,6Z)-2,6-NONADIEN-1-OL]
Odor Threshold (μg/l air) ([1]; Table 4, watery note): 3.22E−06 μg/l air
Odor Value [1, 12]: 3.07E+07
Odor Threshold (μg/l air) [1, 5]: 3.22E−06 μg/l air
Volatility (μg/l air) ([2]; Table 4, watery note): 98.76 μg/l air
Type [2, 13]: middle (perfuming compounds having a volatility ranging from 99 to 50 μg/l in air are referred to as “middle notes”)
Type [2, 7]: Middle
Volatility (μg/l air) [2, 5]: 98.76 μg/l air

CC(C)=CCCC(C)CCOCC=O (racemic)
Odor Threshold (μg/l air) ([1]; Table 7, citrus note): 8.95E−04 μg/l air
Odor Value [1, 8]: 5.26E+03
Volatility (μg/l air) ([2]; Table 7, citrus note): 4.70 μg/l air
Type [2, 9]: Bottom
